Reference: patent US7304174B2, “CaSR antagonist” (Japan Tobacco Inc., priority 2003, dated 2007)

Assays:
[1] = tested on: PTH secretion; assay: PTH secretion action, Experimental Example 2 (serum PTH after oral administration); type: in vivo, male SD rats; settings: comparative example, 30 mg/5 ml/kg oral
[2] = tested on: PTH secretion; assay: Concomitant administration of test compound and estrogen: blood PTH with time; type: in vivo, ovariectomized rats
Method: The 13-week-old ovariectomized rats were divided into 4 groups of a control group (Group A), an estrogen administration group (Group B), a test compound administration group (Group C), and a test compound and estrogen concomitant administration group (Group D). One sham control group (E group) subjected to a sham surgery was also established. Estradiol was dissolved in 5% benzyl alcohol-corn oil and subcutaneously administered to an estrogen administration groups (Group B and Group D) at the dose of 10 μg/kg. 5% Benzyl alcohol-corn oil was subcutaneously administered to groups (Group A and Group C) free from administration of estrogen. The compound of Example 1-1 was suspended in 0.5% methyl cellulose solution and orally administered to groups (Group C and Group D) to be administered with the test compound at the dose of 3 mg/kg. As regards the groups (Group A and Group B) free from administration of the test compound, 0.5% methyl cellulose solution was orally administered.
In addition, blood was drawn with time for the measurement of blood PTH at day 16 of administration. The blood was drawn in each group from the tail vein immediately before oral administration and 0.25, 0.5, 1, 2 and 4 hr later, and serum was obtained. For serum PTH measurement, a commercially available ELISA kit (“rat intact PTH ELISA kit”, Immutopics) was used.

[3] = tested on: bone resorption; assay: Concomitant administration of test compound and estrogen: bone resorption marker blood ICTP; type: in vivo, ovariectomized rats; settings: day 13, exclusive administration (Group B estradiol 10 μg/kg s.c.; Group C Example 1-1 3 mg/kg oral), mean ± S.D., n = 5
Method: The 13-week-old ovariectomized rats were divided into 4 groups of a control group (Group A), an estrogen administration group (Group B), a test compound administration group (Group C), and a test compound and estrogen concomitant administration group (Group D). One sham control group (E group) subjected to a sham surgery was also established. Estradiol was dissolved in 5% benzyl alcohol-corn oil and subcutaneously administered to an estrogen administration groups (Group B and Group D) at the dose of 10 μg/kg. 5% Benzyl alcohol-corn oil was subcutaneously administered to groups (Group A and Group C) free from administration of estrogen. The compound of Example 1-1 was suspended in 0.5% methyl cellulose solution and orally administered to groups (Group C and Group D) to be administered with the test compound at the dose of 3 mg/kg. As regards the groups (Group A and Group B) free from administration of the test compound, 0.5% methyl cellulose solution was orally administered. On day 13 from the start of the administration, the blood was drawn in each group from the tail vein, and serum was obtained. ICTP, which is a blood bone resorption marker, was measured using a commercially available ELISA kit (“RatLaps ELISA kit”, Nordic Bioscience Diagnostics).

[4] = target: T1, human calcium receptor (Homo sapiens, UniProt P41180); assay: Evaluation of antagonistic action on calcium receptor using reporter gene (luciferase); type: cell-based; settings: transformed rat adrenal derived cells, 5 mM calcium chloride, culture 4 hrs, luciferase activity; read-out: Reporter gene assay (IC50, concentration showing 50% inhibitory rate)
T1 construct: expressed in transfected cells; host or cells: cell strain derived from rat adrenal, co-transformed with luciferase cDNA
T1 sequence (P41180 20-1078): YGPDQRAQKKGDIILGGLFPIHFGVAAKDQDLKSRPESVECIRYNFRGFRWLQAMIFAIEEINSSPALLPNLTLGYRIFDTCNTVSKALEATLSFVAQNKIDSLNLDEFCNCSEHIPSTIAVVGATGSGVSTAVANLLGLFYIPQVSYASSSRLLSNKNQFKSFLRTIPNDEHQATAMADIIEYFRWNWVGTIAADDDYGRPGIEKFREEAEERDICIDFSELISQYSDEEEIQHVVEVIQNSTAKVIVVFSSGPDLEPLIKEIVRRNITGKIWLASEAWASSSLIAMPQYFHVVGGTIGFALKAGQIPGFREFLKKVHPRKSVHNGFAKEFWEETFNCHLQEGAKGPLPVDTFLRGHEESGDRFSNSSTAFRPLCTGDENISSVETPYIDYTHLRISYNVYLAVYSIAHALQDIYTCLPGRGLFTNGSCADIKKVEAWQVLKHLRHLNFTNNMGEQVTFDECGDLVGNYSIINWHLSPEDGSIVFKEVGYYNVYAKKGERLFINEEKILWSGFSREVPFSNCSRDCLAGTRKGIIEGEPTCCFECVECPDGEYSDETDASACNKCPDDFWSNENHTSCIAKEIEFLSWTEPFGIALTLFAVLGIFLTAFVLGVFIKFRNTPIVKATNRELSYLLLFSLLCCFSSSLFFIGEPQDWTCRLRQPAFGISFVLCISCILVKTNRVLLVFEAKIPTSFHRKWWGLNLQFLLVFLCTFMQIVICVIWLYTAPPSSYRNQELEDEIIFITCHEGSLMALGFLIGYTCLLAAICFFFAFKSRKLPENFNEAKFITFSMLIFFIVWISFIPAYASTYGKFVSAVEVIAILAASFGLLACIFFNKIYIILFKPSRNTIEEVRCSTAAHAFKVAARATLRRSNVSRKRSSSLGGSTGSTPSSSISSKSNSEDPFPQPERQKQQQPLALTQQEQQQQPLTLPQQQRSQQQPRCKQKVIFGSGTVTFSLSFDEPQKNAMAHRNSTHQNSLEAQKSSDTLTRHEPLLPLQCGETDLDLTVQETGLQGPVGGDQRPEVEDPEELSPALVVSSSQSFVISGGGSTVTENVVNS
Method in brief: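 Rat adrenal-derived cells transfected with luciferase and human calcium receptor cDNA, in F12 with 0.5% dialyzed horse serum and 0.25% dialyzed fetal bovine serum. Luciferase luminescence gave % inhibition vs control and blank; IC50 at 50% inhibition.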

[5] = tested on: PTH secretion; assay: PTH secretion action, Experimental Example 3 (serum PTH after oral administration); type: in vivo, male SD rats; settings: test compound administration group, 1 mg/5 ml/kg oral, rats fasted 20 hrs
Method: The test compound was orally administered to 5 to 9-week-old male SD rats (Charles River Japan, Inc.) fasted for 20 hrs, using a solvent (0.5% methyl cellulose solution) at a dose of 1 mg/5 ml/kg. A solvent alone was orally administered to the control group at a dose of 5 ml/kg. The blood was drawn from the tail vein immediately before and 15 min, 30 min after administration of the test compound, and serum was obtained. The serum PTH concentration was measured using rat PTH ELISA kit (Amersham Biosciences).

[6] = tested on: PTH secretion; assay: Reproductive test of NPS-2143 of the reference (PTH secretion); type: in vivo
[7] = tested on: osteoblast and osteoclast; settings: in vitro; cited from earlier work
[8] = OVX rat, 100 μmol/kg; cited from earlier work
[9] = tested on: PTH release; settings: cited from earlier work

COc1ccc(-c2cccc(C(=O)O)c2)cc1C(OC[C@H](O)CNC(C)(C)Cc1ccc2ccccc2c1)C1CC1 (some centres unmarked)
PTH secretion activity [1]: no PTH secretion activity was exhibited

C[C@]12CC[C@@H]3c4ccc(O)cc4CC[C@H]3[C@@H]1CC[C@@H]2O [Estradiol, reference compound]
Change of blood PTH with time ([2]; Table 66, exclusive administration): increase in blood PTH was not observed | PTH (1–84) concentration 0.25 hr ([2]; day 16, 0.25 hr, exclusive administration (Group B estradiol; Group C Example 1-1 3 mg/kg oral)): 53.65 ± 56.31 pg/mL | PTH (1–84) concentration 0.5 hr ([2]; day 16, 0.5 hr, exclusive administration (Group B estradiol; Group C Example 1-1 3 mg/kg oral)): 56.55 ± 21.71 pg/mL | PTH (1–84) concentration 1 hr ([2]; day 16, 1 hr, exclusive administration (Group B estradiol; Group C Example 1-1 3 mg/kg oral)): 35.70 ± 21.30 pg/mL | PTH (1–84) concentration 2 hr ([2]; day 16, 2 hr, exclusive administration (Group B estradiol; Group C Example 1-1 3 mg/kg oral)): 41.94 ± 20.85 pg/mL | PTH (1–84) concentration 4 hr ([2]; day 16, 4 hr, exclusive administration (Group B estradiol; Group C Example 1-1 3 mg/kg oral)): 46.84 ± 14.62 pg/mL | PTH (1–84) concentration 0 hr ([2]; day 16, immediately before oral administration, exclusive administration (Group B estradiol 10 μg/kg s.c.; Group C Example 1-1 3 mg/kg oral)): 36.83 ± 14.45 pg/mL | Blood ICTP concentration [3]: 20.93 ± 3.18 ng/mL

Cc1ccc(CC(C)(C)NC[C@@H](O)CO[C@H](C)c2ccccc2Oc2ccc(C(=O)O)cc2)cc1F [Example 2-1, 4-[2-[(1R)-[(2R)-3-[[1-(3-fluoro-4-methylphenyl)-2-methylpropan-2-yl]amino]-2-hydroxypropoxy]ethyl]phenoxy]benzoic acid]
IC50 [4]: 15 nM | Serum PTH concentration 15 min later ([5]; 15 min): 25.1 ± 2.3 pg/mL | Serum PTH concentration 30 min later ([5]; 30 min): 19.1 ± 0.9 pg/mL

CC(C)(Cc1ccc2ccccc2c1)NC[C@@H](O)COc1cccc(Cl)c1C#N [NPS-2143]
PTH secretion promoting action [6]: sustained secretion promoting action | Direct effect on osteoblast and osteoclast [7]: did not show any direct effect | Blood concentration of NPS-2143 8 hours after the administration [8]: not less than 100 ng/ml | Blood concentration of NPS-2143 24 hours later [8]: ≤ 10 ng/mL | Blood PTH concentration 4 hours later ([9]; OVX rat, 100 μmol/kg): about 140 pg/ml | Blood PTH concentration in 30 minutes ([9]; OVX rat, rat PTH (1-34) 5 μg/kg, NPS-2143 100 μmol/kg): about 115 pg/ml | Effect on bone (bone density) ([9]; OVX rats, oral): free of bone decrease or bone increase | Release of PTH ([9]; OVX rats, oral): significantly promotes release of PTH
